Results taken from PMC2586337 (Biochemistry, 2008).
Like-named read-outs stand apart in the source and are kept apart here.

Legend:
[1] = molecular target: T1, primase (UL5/UL8/UL52) (Human herpesvirus 1, UniProt P10236); assay: Incorporation of nucleotides as the second nucleotide of the primer; type: biochemical, herpes simplex virus I
[2] = molecular target: T1, primase (UL5/UL8/UL52); assay: Incorporation of nucleotides as the 5′-terminal nucleotide of the primer; type: biochemical, herpes simplex virus I
[3] = molecular target: T1, primase (UL5/UL8/UL52); assay: Polymerization of nucleoside triphosphates onto a RNA primer:DNA template; type: biochemical, herpes simplex virus I; conditions: for VMax: primer:template DNAT, DNAC or DNAG; for Km: primer:template with next correct NTP: DNAT (ATP), DNAC (GTP), DNAG (CTP)
[4] = molecular target: T1, primase (UL5/UL8/UL52); assay: Primer synthesis on d; type: biochemical, herpes simplex virus I; conditions: for incorporation by primase opposite template dG (new products of altered mobility): template d(GTCT)15, ATP, 800 μM analogue; for incorporation by primase opposite template dG (new products of altered mobility) / primers elongated after incorporation of the nucleotide: GTP; for chain termination after incorporation: template d(GTCT)15, ATP and GTP; for primers elongated after incorporation of the nucleotide: 800 μM ATP
[5] = molecular target: T1, primase (UL5/UL8/UL52); assay: Inhibition of NTP polymerization onto primer:templates; type: biochemical; conditions: for type of inhibition with respect to GTP incorporation: data not shown
[6] = molecular target: T1, primase (UL5/UL8/UL52); type: biochemical, herpes simplex virus I
[7] = inhibition of ATP polymerization, ATP (100 μM), DNAT
[8] = inhibition of GTP polymerization, 800 μM GTP, DNAC
[9] = inhibition of GTP polymerization, GTP (100 μM), DNAC
[10] = IC50, inhibition of GTP polymerization, 800 μM GTP, DNAC

T1 sequence (P10189 whole entry): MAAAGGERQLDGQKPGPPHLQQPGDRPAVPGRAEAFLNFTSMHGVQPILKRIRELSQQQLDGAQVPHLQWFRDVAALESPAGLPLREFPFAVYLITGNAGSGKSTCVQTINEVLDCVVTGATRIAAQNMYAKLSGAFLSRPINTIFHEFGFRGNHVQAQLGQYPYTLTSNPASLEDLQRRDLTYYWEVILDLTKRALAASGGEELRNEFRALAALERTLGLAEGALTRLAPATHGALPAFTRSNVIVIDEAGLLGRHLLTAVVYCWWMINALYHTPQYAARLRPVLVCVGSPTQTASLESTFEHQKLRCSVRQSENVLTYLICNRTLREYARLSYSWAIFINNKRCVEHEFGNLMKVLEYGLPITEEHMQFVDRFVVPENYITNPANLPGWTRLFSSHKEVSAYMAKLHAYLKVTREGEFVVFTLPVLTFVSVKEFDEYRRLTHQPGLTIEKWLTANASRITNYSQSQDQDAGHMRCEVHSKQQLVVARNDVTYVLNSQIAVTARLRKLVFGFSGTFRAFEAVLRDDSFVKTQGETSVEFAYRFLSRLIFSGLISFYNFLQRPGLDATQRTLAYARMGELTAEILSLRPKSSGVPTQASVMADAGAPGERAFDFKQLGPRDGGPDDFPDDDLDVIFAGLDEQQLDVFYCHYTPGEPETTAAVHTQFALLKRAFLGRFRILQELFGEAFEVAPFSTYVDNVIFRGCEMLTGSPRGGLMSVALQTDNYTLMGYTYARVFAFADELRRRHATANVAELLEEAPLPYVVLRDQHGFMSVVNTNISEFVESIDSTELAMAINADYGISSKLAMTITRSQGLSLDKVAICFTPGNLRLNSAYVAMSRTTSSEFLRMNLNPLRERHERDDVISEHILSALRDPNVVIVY
T1 sequence (P10192 whole entry, further chain): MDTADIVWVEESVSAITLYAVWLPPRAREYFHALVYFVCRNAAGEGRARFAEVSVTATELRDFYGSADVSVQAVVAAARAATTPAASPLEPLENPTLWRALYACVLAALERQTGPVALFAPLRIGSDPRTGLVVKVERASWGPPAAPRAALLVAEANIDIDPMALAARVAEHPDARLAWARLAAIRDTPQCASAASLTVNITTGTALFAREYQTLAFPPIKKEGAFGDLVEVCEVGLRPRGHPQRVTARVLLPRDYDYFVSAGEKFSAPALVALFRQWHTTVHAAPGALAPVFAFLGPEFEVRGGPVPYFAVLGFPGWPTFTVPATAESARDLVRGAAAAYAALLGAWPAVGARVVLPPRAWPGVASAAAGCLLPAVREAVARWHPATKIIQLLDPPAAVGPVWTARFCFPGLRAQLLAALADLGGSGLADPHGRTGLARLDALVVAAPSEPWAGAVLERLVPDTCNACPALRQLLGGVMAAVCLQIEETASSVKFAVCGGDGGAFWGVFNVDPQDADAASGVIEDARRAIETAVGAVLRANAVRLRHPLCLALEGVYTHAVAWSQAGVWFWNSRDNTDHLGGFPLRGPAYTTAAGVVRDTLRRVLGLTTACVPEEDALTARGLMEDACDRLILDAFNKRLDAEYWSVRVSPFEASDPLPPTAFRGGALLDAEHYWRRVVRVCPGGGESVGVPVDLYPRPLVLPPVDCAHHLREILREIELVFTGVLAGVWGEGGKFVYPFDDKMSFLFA
T1 sequence (P10236 whole entry): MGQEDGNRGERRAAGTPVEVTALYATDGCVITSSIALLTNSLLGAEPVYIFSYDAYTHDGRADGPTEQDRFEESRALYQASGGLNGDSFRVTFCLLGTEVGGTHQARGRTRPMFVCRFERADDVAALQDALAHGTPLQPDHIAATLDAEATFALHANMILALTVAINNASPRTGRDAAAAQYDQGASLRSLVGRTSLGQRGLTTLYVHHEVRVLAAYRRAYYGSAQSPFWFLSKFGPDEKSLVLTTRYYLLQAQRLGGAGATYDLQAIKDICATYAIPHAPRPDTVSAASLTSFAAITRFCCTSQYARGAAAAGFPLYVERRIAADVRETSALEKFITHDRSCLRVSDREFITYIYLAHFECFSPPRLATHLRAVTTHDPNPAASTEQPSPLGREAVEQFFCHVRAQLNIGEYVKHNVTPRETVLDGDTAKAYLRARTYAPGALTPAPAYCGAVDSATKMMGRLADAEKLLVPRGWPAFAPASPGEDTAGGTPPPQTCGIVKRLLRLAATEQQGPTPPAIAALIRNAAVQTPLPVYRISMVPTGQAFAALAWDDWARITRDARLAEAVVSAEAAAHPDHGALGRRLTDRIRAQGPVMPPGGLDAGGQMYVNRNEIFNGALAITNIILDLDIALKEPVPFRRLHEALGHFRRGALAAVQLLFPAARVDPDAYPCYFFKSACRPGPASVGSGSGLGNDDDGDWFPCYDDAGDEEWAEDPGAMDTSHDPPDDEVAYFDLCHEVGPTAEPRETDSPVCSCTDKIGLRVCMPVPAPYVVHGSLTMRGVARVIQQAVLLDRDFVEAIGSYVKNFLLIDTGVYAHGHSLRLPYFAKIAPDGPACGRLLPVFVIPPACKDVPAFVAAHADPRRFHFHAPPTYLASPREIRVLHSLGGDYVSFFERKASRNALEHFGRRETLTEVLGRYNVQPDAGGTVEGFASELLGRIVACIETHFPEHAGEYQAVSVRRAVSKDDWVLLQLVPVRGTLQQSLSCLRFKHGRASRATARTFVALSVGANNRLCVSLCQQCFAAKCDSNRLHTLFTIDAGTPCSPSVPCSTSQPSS

**Q.** Which VMax [1] does the source give for Nc1ncnc2c1ncn2[C@H]1C[C@H](O)[C@@H](COP(=O)(O)OP(=O)(O)OP(=O)(O)O)O1 [2′-dATP] here?
**A.** Its VMax is >10 pmol/min.

**Q.** What about the VMax [2] of the same compound?
**A.** Its VMax is 20 ± 1.1 pmol/min.

**Q.** What about the VMax [3] of the same compound?
**A.** The VMax was 0.024 ± 0.06 pmol/h.

**Q.** And the Km [3]?
**A.** The Km was 770 ± 370 µM.

**Q.** What does the source list for Nc1ccn([C@H]2C[C@H](O)[C@@H](COP(=O)(O)OP(=O)(O)OP(=O)(O)O)O2)c(=O)n1 [2′-dCTP]?
**A.** incorporation by primase opposite template dG (new products of altered mobility) [4]: readily incorporates; VMax [3]: 0.16 ± 0.036 pmol/h; Km [3]: 640 ± 360 µM

**Q.** For Nc1nc2c(ncn2[C@H]2C[C@H](O)[C@@H](COP(=O)(O)OP(=O)(O)OP(=O)(O)O)O2)c(=O)[nH]1 [2′-dGTP], which VMax [1] is on record?
**A.** Its VMax is 5.3 ± 0.8 pmol/min.

**Q.** And the VMax [3]?
**A.** The VMax was 0.18 ± 0.02 pmol/h.

**Q.** And the Km [3]?
**A.** Its Km is 130 ± 80 µM.

**Q.** How did the IC50 ([5]; inhibition of ATP polymerization, 800 μM ATP, DNAT) turn out when Nc1ncnc2c1ncn2[C@@H]1O[C@H](COP(=O)(O)OP(=O)(O)OP(=O)(O)O)C[C@H]1O [3′-dATP, cordycepin triphosphate] was run?
**A.** The IC50 was 1100 ± 170 µM.

**Q.** Nc1nc2c(ncn2COCCOP(=O)(O)OP(=O)(O)OP(=O)(O)O)c(=O)[nH]1 [ACVTP, acyclovir triphosphate] was tested. Which IC50 [5] did it give?
**A.** The IC50 was 3200 ± 570 µM.

**Q.** Nc1ncnc2c1ncn2[C@@H]1O[C@H](COP(=O)(O)OP(=O)(O)O)[C@@H](O)[C@H]1O [ADP] was tested. Which IC50 [5, 7] did it give?
**A.** The IC50 was > 10000 µM.

**Q.** Which IC50 [5, 7] does the source give for Nc1ncnc2c1ncn2[C@@H]1O[C@H](COP(=O)(O)O)[C@@H](O)[C@H]1O [AMP] here?
**A.** Its IC50 is > 10000 µM.

**Q.** Which VMax [1] does the source give for Nc1ncnc2c1ncn2[C@@H]1O[C@H](COP(=O)(O)OP(=O)(O)OP(=O)(O)O)[C@@H](O)[C@H]1O [ATP] here?
**A.** The VMax was 5.1 ± 1.8 pmol/min.

**Q.** And the VMax [2]?
**A.** Its VMax is 14 ± 1.7 pmol/min.

**Q.** And the VMax [3]?
**A.** The VMax was 0.23 ± 0.09 pmol/h.

**Q.** And the Km [3]?
**A.** Its Km is 1700 ± 960 µM.

**Q.** How did the VMax [1] turn out when Nc1ncnc2c1ncn2[C@@H]1O[C@H](COP(=O)(O)OP(=O)(O)OP(=O)(O)O)[C@@H](O)[C@@H]1O [AraATP, arabionfuranosyladenine triphosphate] was run?
**A.** The VMax was 1.0 ± 0.16 pmol/min.

**Q.** And the VMax [2]?
**A.** Its VMax is 0.04 ± 0.005 pmol/min.

**Q.** And the VMax [3]?
**A.** Its VMax is 0.026 ± 0.004 pmol/h.

**Q.** And the Km [3]?
**A.** The Km was 190 ± 110 µM.

**Q.** What does the source list for Nc1ccn([C@@H]2O[C@H](COP(=O)(O)OP(=O)(O)OP(=O)(O)O)[C@@H](O)[C@@H]2O)c(=O)n1 [AraCTP, arabinofuranosylcytosine triphosphate]?
**A.** chain termination after incorporation [4]: very strong chain termination; incorporation by primase opposite template dG (new products of altered mobility) [4]: polymerized; VMax [3]: 0.30 ± 0.05 pmol/h; Km [3]: 360 ± 190 µM

**Q.** With Nc1nc2c(ncn2[C@@H]2O[C@H](COP(=O)(O)OP(=O)(O)OP(=O)(O)O)[C@@H](O)[C@@H]2O)c(=O)[nH]1 [AraGTP, arabinofuranosylguanine triphosphate] as the compound, how does the VMax [1] read?
**A.** Its VMax is 4.1 ± 0.3 pmol/min.

**Q.** What about the VMax [3] of the same compound?
**A.** Its VMax is 0.044 ± 0.006 pmol/h.

**Q.** What about the Km [3] of the same compound?
**A.** The Km was 300 ± 140 µM.

**Q.** Nc1ccn([C@@H]2O[C@H](COP(=O)(O)OP(=O)(O)OP(=O)(O)O)[C@@H](O)[C@H]2O)c(=O)n1 [CTP] was tested. Which “primers elongated after incorporation of the nucleotide” value ([4]; template d(GTCT)15) did it give?
**A.** Its value is 75%.

**Q.** And the “incorporation by primase opposite template dG (new products of altered mobility)” value [4]?
**A.** The value was “readily incorporates”.

**Q.** And the VMax [3]?
**A.** Its VMax is 1.2 ± 0.16 pmol/h.

**Q.** What about the Km [3] of the same compound?
**A.** The Km was 1100 ± 280 µM.

**Q.** How did the IC50 [5, 8] turn out when Nc1nc(O)c2ncn(COC(CO)COP(=O)(O)OP(=O)(O)OP(=O)(O)O)c2n1 (centres unmarked) [GCVTP, ganciclovir triphosphate] was run?
**A.** Its IC50 is 3400 ± 880 µM.

**Q.** For Nc1nc2c(ncn2[C@@H]2O[C@H](COP(=O)(O)OP(=O)(O)O)[C@@H](O)[C@H]2O)c(=O)[nH]1 [GDP], which “type of inhibition with respect to GTP incorporation” value [5] is on record?
**A.** The value was “competitive”.

**Q.** What about the IC50 [5, 9] of the same compound?
**A.** Its IC50 is 4400 ± 650 µM.

**Q.** With Nc1nc2c(ncn2[C@@H]2O[C@H](COP(=O)(O)O)[C@@H](O)[C@H]2O)c(=O)[nH]1 [GMP] as the compound, how does the IC50 [5, 9] read?
**A.** Its IC50 is 3800 ± 540 µM.

**Q.** Which results are given for Nc1nc2c(ncn2[C@@H]2O[C@H](COP(=O)(O)OP(=O)(O)OP(=O)(O)O)[C@@H](O)[C@H]2O)c(=O)[nH]1 [GTP]?
**A.** VMax [1]: 9.5 ± 1.3 pmol/min; VMax [2]: 1.1 ± 0.27 pmol/min; VMax [3]: 0.060 ± 0.012 pmol/h; Km [3]: 230 ± 170 µM

**Q.** How did the “chain termination after incorporation” value [4] turn out when Nc1ccn(C2SC(COP(=O)(O)OP(=O)(O)OP(=O)(O)O)C(O)C2O)c(=O)n1 (centres unmarked) [SaraCTP, 4′-thio-arabinofuranosylcytosine triphosphate] was run?
**A.** The value was “very strong chain termination”.

**Q.** And the “incorporation by primase opposite template dG (new products of altered mobility)” value [4]?
**A.** The value was “polymerized”.

**Q.** With Nc1ccn([C@@H]2O[C@H](COP(=O)(O)OP(=O)(O)OP(=O)(O)O)[C@@H](O)C2(F)F)c(=O)n1 [dFdCTP, 2′,2′-Difluoro-2′-deoxycytidine triphosphate] as the compound, how does the “primers elongated after incorporation of the nucleotide” value ([4]; template d(GTCT)15) read?
**A.** Its value is 11%.

**Q.** What about the inhibition of primase ([4]; 800 μM, template d(GTCT)15) of the same compound?
**A.** The inhibition of primase was “relatively strong inhibition”.

**Q.** And the “chain termination after incorporation” value [4]?
**A.** The value was “strong chain termination”.

**Q.** What about the “incorporation by primase opposite template dG (new products of altered mobility)” value [4] of the same compound?
**A.** The value was “polymerized”.

**Q.** With Nc1ncnc2c1ncn2[C@H]1CC[C@@H](COP(=O)(O)OP(=O)(O)OP(=O)(O)O)O1 [ddATP] as the compound, how does the IC50 ([5]; IC50, inhibition of ATP polymerization, 800 μM ATP, DNAT) read?
**A.** The IC50 was 1700 ± 110 µM.

**Q.** What about the IC50 [5, 10] of the same compound?
**A.** The IC50 was 2400 ± 900 µM.

**Q.** Which IC50 [5, 10] does the source give for Nc1ccn([C@H]2CC[C@@H](COP(=O)(O)OP(=O)(O)OP(=O)(O)O)O2)c(=O)n1 [ddCTP] here?
**A.** Its IC50 is 800 ± 120 µM.

**Q.** What about the “incorporation by primase opposite template dG (new products of altered mobility)” value [4] of the same compound?
**A.** The value was “does not readily incorporate”.

**Q.** And the inhibition of primase ([4]; template d(GTCT)15, increased ddCTP concentration, data not shown)?
**A.** Its inhibition of primase is > 90%.

**Q.** Which results are given for Nc1nc2c(ncn2[C@H]2CC[C@@H](COP(=O)(O)OP(=O)(O)OP(=O)(O)O)O2)c(=O)[nH]1 [ddGTP]?
**A.** type of inhibition with respect to GTP incorporation [5]: competitive; IC50 [5, 8]: 1100 ± 180 µM; inhibition of primase activity ([6]; template C20GCCCTA15, increasing ddGTP up to 2 mM): up to 90%; incorporation by primase as third and later nucleotide (new products) ([6]; template C20GCCCTA15 for GTP analogues, ATP, [α-32P]GTP, partly data not shown): no new products
